Reference: US12115149B2, “Formulations, methods, kits, and dosage forms” (MedRegen, LLC, priority 2020, dated 2024)
Where two headings read alike, the source gives them in different places.

How the values were obtained:
[1] = PK/PD study of Formulation A s.c. in mini pigs; settings: Formulation A 0.132 ml/kg s.c.
Method: (§1) All samples were frozen and stored at −70° C. on receipt. The samples were analyzed by liquid chromatography with tandem mass spectral detection.

[2] = rat, in vivo, sc; for time by which cleared: SD
Method: as §1

[3] = PK/PD study of Formulation A s.c. in SD rats; settings: for absorption lag time after s.c. administration: Formulation A 0.744 ml/kg s.c.
Method: as §1

[4] = cited from earlier work
[5] = pig, in vivo, sc
Method: as §1

[6] = Degradation of FK506 in a combination of the two APIs; type: physicochemical; settings: combination of the two APIs in solution, earlier attempts; stated as 'may be'

Q: For `c1cc(CN2CCCNCCNCCCNCC2)ccc1CN1CCCNCCNCCCNCC1` [AMD3100], which “blood level at 3 hours” value [1] is on record?
A: Its value is “remained at high levels”.

Q: And the clearance from blood [1]?
A: The clearance from blood was “cleared rapidly after 12 hours”.

Q: And the “time by which cleared” value [2]?
A: Its value is no more than 12 h.

Q: What about the “plasma level at 3 hours” value [2] of the same compound?
A: The value was “remained at high levels”.

Q: What about the “absorption lag time after s.c. administration” value [3] of the same compound?
A: Its value is “no observable lag time”.

Q: Which solubility in water [4] does the source give for AMD3100 octahydrochloride hydrate here?
A: The solubility in water was 22 mg/mL.

Q: For `C=CC[C@@H]1/C=C(\C)C[C@H](C)C[C@H](OC)[C@H]2O[C@@](O)(C(=O)C(=O)N3CCCC[C@H]3C(=O)O[C@H](/C(C)=C/[C@@H]3CC[C@@H](O)[C@H](OC)C3)[C@H](C)[C@@H](O)CC1=O)[C@H](C)C[C@@H]2OC` [FK506, Tacrolimus], which clearance from blood [1] is on record?
A: Its clearance from blood is “cleared rapidly after 12 hours”.

Q: And the solubility in water [4]?
A: Its solubility in water is “poor solubility in water”.

Q: What about the “time by which cleared” value [2] of the same compound?
A: The value was no more than 12 h.

Q: And the “plasma level at 3 hours” value [2]?
A: The value was “remained at high levels”.

Q: What about the “blood level at 3 hours” value [5] of the same compound?
A: The value was “remained at high levels”.

Q: And the “absorption lag time after s.c. administration” value [3]?
A: Its value is “no observable lag time”.

Q: And the “time of peak plasma concentration” value ([3]; Formulation A 0.744 ml/kg s.c. (AMD3100 17.856 mg/kg, FK506 0.372 mg/kg), n=12)?
A: Its value is 1 h.

Q: And the FK506 degraded [6]?
A: Its FK506 degraded is “About 50%”.
